Experimental data published in the Kinase Knowledgebase extract (Sharma et al. 2016).

biological target: PIK3CA (human) (UniProt P42336); assay: Assessment of PIK3CA Kinase Activity
Sequence (P42336 whole entry, looked up): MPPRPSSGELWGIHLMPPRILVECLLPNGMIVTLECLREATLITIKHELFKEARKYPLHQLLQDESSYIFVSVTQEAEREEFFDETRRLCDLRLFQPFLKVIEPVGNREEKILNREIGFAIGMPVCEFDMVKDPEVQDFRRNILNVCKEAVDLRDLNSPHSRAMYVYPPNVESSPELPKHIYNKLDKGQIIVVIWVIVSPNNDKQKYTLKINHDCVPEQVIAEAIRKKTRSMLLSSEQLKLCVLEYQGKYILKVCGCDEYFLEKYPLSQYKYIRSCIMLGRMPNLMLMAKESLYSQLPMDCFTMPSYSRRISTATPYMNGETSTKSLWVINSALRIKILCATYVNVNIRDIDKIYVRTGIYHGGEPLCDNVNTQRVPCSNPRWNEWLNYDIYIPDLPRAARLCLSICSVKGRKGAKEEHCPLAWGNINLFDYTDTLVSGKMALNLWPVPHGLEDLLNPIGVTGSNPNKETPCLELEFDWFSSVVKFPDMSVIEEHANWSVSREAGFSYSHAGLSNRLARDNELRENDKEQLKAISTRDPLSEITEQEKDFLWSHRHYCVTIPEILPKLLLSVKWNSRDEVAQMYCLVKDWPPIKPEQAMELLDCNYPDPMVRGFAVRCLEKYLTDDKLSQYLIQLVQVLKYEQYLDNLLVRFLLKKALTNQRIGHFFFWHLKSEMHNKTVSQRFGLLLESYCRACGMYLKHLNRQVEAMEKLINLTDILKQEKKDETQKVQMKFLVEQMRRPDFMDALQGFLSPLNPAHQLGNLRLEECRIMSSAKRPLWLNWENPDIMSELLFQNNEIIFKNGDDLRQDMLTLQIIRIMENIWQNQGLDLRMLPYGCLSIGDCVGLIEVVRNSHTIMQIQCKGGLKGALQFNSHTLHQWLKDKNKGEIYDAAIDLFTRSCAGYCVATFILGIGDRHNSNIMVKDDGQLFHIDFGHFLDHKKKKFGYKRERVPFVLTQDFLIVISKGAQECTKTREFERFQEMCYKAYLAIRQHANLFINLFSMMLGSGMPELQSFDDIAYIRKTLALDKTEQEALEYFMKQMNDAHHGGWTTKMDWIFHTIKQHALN

Structure (SMILES)	IC50 [nM]
CNC(=O)Nc1ccc(-c2cc3nccn3c(N3CCOCC3)n2)cc1	2970
C[C@@H]1COCCN1c1cc(C2CCOCC2)nc(-c2ccc(NC(=O)Nc3cccnc3)cc2)n1	684
O=C(Nc1ccc(-c2nccc(N3CCOCC3)n2)cc1)NC1CC1	2750
O=C(Nc1ccc(-c2nccc(N3CCOCC3)n2)cc1)OCCO	2550
C[C@@H]1COCCN1c1cc(N2CCOC[C@H]2C)nc(-c2ccc(NC(=O)Nc3ccc(C(=O)N4CCN(C)CC4)cc3)cc2)n1	77.5
C[C@@H]1COCCN1c1cc(C2CCOCC2)nc(-c2ccc(NC(=O)Nc3ccc(N4CCN(C)CC4)cc3)cc2)n1	420
O=C(Nc1ccc(-c2ccnc(N3CCOCC3)n2)cc1)OCCO	2860
CN1CCN(c2ccc(NC(=O)Nc3ccc(-c4cc(N5CCOCC5)nc(-c5ccccc5)n4)cc3)cc2)CC1	7770
CN(C)CCN(C)C(=O)c1ccc(NC(=O)Nc2ccc(-c3nc(O)c(NC=O)c(N4CCOCC4)n3)cc2)cc1	76
CNC(=O)Nc1ccc(-c2cc(N3CCOCC3)c3cnn(C4CCN(Cc5ccccc5)CC4)c3n2)cc1	592
CN1CCN(c2ccc(NC(=O)Nc3ccc(-c4ccnc(N5CCOCC5)n4)cc3)cn2)CC1	79
O=C(Nc1ccc(-c2cc(N3CCOCC3)nc(-c3ccccc3)n2)cc1)NC1CC1	3070
O=C(NCCF)Nc1ccc(-c2nc(N3CCOCC3)c3sccc3n2)cc1	364
O=C(Nc1ccc(-c2nc(N3CCOCC3)c3sccc3n2)cc1)NC1CC1	636
CNC(=O)Nc1ccc(-c2ccnc(N3CCOCC3)n2)cc1	394
C[C@@H]1COCCN1c1cc(C2CCOCC2)nc(-c2ccc(NC(=O)Nc3ccncc3)cc2)n1	383
C[C@@H]1COCCN1c1cc(N2CCOC[C@H]2C)nc(-c2ccc(NC(=O)Nc3ccncc3)cc2)n1	572

Structure (SMILES)	IC50 [nM]
CNC(=O)Nc1ccc(-c2nccc(N3CCOCC3)n2)cc1	384
O=CNc1c(O)nc(-c2ccc(NC(=O)Nc3ccc(C(=O)NCCN4CCCCC4)cc3)cc2)nc1N1CCOCC1	202
C[C@@H]1COCCN1c1cc(N2CCOC[C@H]2C)nc(-c2ccc(NC(=O)Nc3ccc(N4CCN(C)CC4)cc3)cc2)n1	565
O=C(Nc1ccncc1)Nc1ccc(-c2cc3nccn3c(N3CCOCC3)n2)cc1	654
CCNC(=O)Nc1ccc(-c2nc(N3CCOCC3)c3sccc3n2)cc1	312
COC(=O)Nc1ccc(-c2nc(N3CCOCC3)c3sccc3n2)cc1	1600
CCNC(=O)Nc1ccc(-c2nccc(N3CCOCC3)n2)cc1	415
CC(C)N1CCN(C(=O)c2ccc(NC(=O)Nc3ccc(-c4nc(N5CCOC[C@H]5C)cc(N5CCOC[C@H]5C)n4)cc3)cc2)CC1	113
O=C(Nc1ccc(-c2cc3nccn3c(N3CCOCC3)n2)cc1)NC1CC1	5080
C[C@@H]1COCCN1c1cc(N2CCOC[C@H]2C)nc(-c2ccc(NC(=O)Nc3cccnc3)cc2)n1	983
O=C(NCCO)Nc1ccc(-c2nc(N3CCOCC3)c3sccc3n2)cc1	141
CNC(=O)Nc1ccc(-c2nc(N3CCOCC3)c3sccc3n2)cc1	93
O=C(Nc1ccc(-c2nccc(N3CCOCC3)n2)cc1)Nc1ccc(N2CCOCC2)nc1	112
C[C@@H]1COCCN1c1cc(C2CCOCC2)nc(-c2ccc(NC(=O)Nc3ccc(C(=O)N4CCN(C)CC4)cc3)cc2)n1	80.5
CC(C)N1CCN(C(=O)c2ccc(NC(=O)Nc3ccc(-c4nc(C5CCOCC5)cc(N5CCOC[C@H]5C)n4)cc3)cc2)CC1	146
C[C@@H]1COCCN1c1cc(C2CCOCC2)nc(-c2ccc(NC(=O)Nc3ccc(N4CCN(C)CC4)nc3)cc2)n1	694
O=C(Nc1ccc(-c2ncc([N+](=O)[O-])c(N3CCOCC3)n2)cc1)Nc1cccnc1	155

Compounds with a lower IC50, results first:

IC50 [nM]	Structure (SMILES)
53	O=C(Nc1ccc(-c2ncc(-c3ccccc3)c(N3CCOCC3)n2)cc1)Nc1cccnc1
46	CN1CCN(c2ccc(NC(=O)Nc3ccc(-c4nccc(N5CCOCC5)n4)cc3)cn2)CC1
42	O=C(Nc1ccc(-c2ccnc(N3CCOCC3)n2)cc1)Nc1cccnc1
42	O=C(Nc1ccncc1)Nc1ccc(-c2ncc(Cl)c(N3CCOCC3)n2)cc1
35	Cc1ccc2c(N3CCOCC3)nc(-c3ccc(NC(=O)Nc4ccncc4)cc3)nc2c1
35	C=CCc1cnc(-c2ccc(NC(=O)Nc3cccnc3)cc2)nc1N1CCOCC1
35	O=C(Nc1ccc(-c2nccc(N3CCOCC3)n2)cc1)Nc1ccc(N2CCOCC2)cc1
31	CN(C)CCN(C)C(=O)c1ccc(NC(=O)Nc2ccc(-c3nc(O)c(N)c(N4CCOCC4)n3)cc2)cc1
22	CN(C)CCOc1ccc(NC(=O)Nc2ccc(-c3nccc(N4CCOCC4)n3)cc2)cc1
21	O=C(Nc1ccncc1)Nc1ccc(-c2nc(N3CCOCC3)cc(N3CCOCC3)n2)cc1
19	CN1CCN(c2ccc(NC(=O)Nc3ccc(-c4nccc(N5CCOCC5)n4)cc3)cc2)CC1
16	O=C(Nc1ccncc1)Nc1ccc(-c2cc(N3CCOCC3)nc(N3CCOCC3)n2)cc1
15	O=C(Nc1ccncc1)Nc1ccc(-c2nccc(N3CCOCC3)n2)cc1
11	O=C(Nc1ccc(-c2nc(N3CCOCC3)c3sccc3n2)cc1)Nc1cccnc1
9	O=C(Nc1ccncc1)Nc1ccc(-c2nc(N3CCOCC3)c3sccc3n2)cc1
7	O=C(Nc1ccccc1)Nc1ccc(-c2nc(N3CCOCC3)c3sccc3n2)cc1
